{
  "source": "patent US20220257541A1",
  "about": "“Lacosamide for the Treatment of ADD/ADHD” (priority 2019, published 2022)",
  "key": {"[1]": {"tested_on": "voltage-gated calcium channels (L-, N-, P/Q, T-type channels)", "settings": "cited from earlier work"}, "[2]": {"tested_on": "reuptake of norepinephrine, dopamine, and serotonin", "settings": "cited from earlier work"}, "[3]": {"tested_on": "AMPA, kainate, NMDA, GABAA, GABAB, dopaminergic, serotonergic, adrenergic, muscarinic or cannabinoid receptors", "settings": "cited from earlier work"}, "[4]": {"tested_on": "patient with ADHD of the combined type", "experiment": "Case Study 1: lacosamide mono-therapy in a child with ADHD", "assay_type": "in vivo, human", "experimental": "We present the case study of a child suffering from ADHD (with no comorbidity such as epilepsy or bipolar disorder). The child was treated with a lacosamide mono-therapy for several weeks based on the conventional treatment regime for lacosamide in children (for the treatment of epilepsy and/or bipolar disorder).\nThis case study describes the case of a person (“the patient”) with ADHD of the combined type. The patient had not previously been treated with any psychotropic drugs.\nBefore initiating the selected drug treatment, the patient underwent a full medical examination. In addition, reports from their school teachers as well as parents were collected.\nLacosamide was administered to the patient following the approved treatment regimen for lacosamide (Vimpat®) in epileptic children from 4 years of age.\nThe treatment was delivered twice a day and went on for >8 weeks."}, "[5]": {"tested_on": "children and adolescents with ADHD syndrome", "experiment": "Case Study 3: adverse reactions or side effects", "assay_type": "in vivo, human", "settings": "all 12 patients, 6 months", "text": "To formalise the control of the treatment, a tool was designed, allowing to record all administrated doses to participants on a daily basis, including any occurrence or increase of adverse reactions or side effects."}, "[6]": {"tested_on": "children and adolescents with ADHD syndrome", "experiment": "Case Study 3: 'PASA' clinical questionnaire (Thinking, Mood, Sleep, Alterity)", "assay_type": "in vivo, human", "experimental": "This study describes a series of cases of 12 children and adolescents (aged between 7 and 17 year old) treated with lacosamide. The patients were from 3 different orphanages and under the general supervision of a tutor.\nWe administrated doses adjusted to age and weight of each patient, in line with the therapeutic doses described herein. Specifically, lacosamide was administered to the patients following the approved treatment regimen for lacosamide (Vimpat®) in epileptic children from 4 years of age as per Table 1 above. The patients were at constant supervision of the tutor and other personnel of the orphanages.\nAfter being selected by the tutors, children were evaluated during a clinical consultation carried out in their own institution. Through this consultation, we verified the clinical condition of each child or adolescent, their records and anamnesis, if any. We also filled out the Clinical story forms. At the same time, we performed the first ‘PASA’ Evaluation. The ‘PASA’ Test is a clinical questionnaire that was developed by the inventor of the present application (see FIG. 1 for questionnaire questions). It includes examination of Thinking (“P” for “Pensamiento”), Mood (“A” for “Animo”), Sleep (“S” for “Sueno”) and Alterity (“A” for “Alteridad”).\n‘PASA’ Evaluation was repeated every 60 days after initiating the medication. The four editions of this questionnaire were compared and analysed, drawing a close-up portrait of the clinical evolution of these cases.\nThe overall trend is very favourable in all cases. Patients' symptoms improved in all categories. In this study, the patients were evaluated before treatment with lacosamide (evaluation 1) and every 2 months in the course of the treatment."}, "[7]": {"settings": "after treatment, ~75% at the beginning"}},
  "data": [
    {"molecule": "COC[C@@H](NC(C)=O)C(=O)NCc1ccccc1", "note": "[lacosamide, (2R)-2-(acetylamino)-N-benzyl-3-methoxypropanamide]", "values": [
      {"measurement": "inhibition of voltage-gated calcium channels (L-, N-, P/Q, T-type)", "setting": "[1]", "result": "not to inhibit"},
      {"measurement": "modulation of reuptake of norepinephrine, dopamine, and serotonin", "setting": "[2]", "result": "does not modulate"},
      {"measurement": "effect on AMPA, kainate, NMDA, GABAA, GABAB, dopaminergic, serotonergic, adrenergic, muscarinic or cannabinoid receptors", "setting": "[3]", "result": "does not affect"},
      {"measurement": "tolerance of the maximum dose administered", "setting": "[4]; 250 mg/day", "result": "no signs of intolerance or inadequacy"},
      {"measurement": "tolerance of the dose", "setting": "[4]; Day 8, 25 mg every 12 hours (50 mg/day)", "result": "tolerated the dose well"},
      {"measurement": "behaviour, sleeping activity, cognitive functionality", "setting": "[4]; Day 8, 50 mg/day", "result": "No improvement"},
      {"measurement": "adverse reaction observed", "setting": "[4]; Day 8, 50 mg/day, ceased after the first few days of treatment", "result": "sporadic headaches"},
      {"measurement": "quality of sleep or cognitive functionality", "setting": "[4]; Day 15, 100 mg/day", "result": "No improvement"},
      {"measurement": "quality of sleep", "setting": "[4]; Day 23, 75 mg every 12 hours (150 mg/day)", "result": "Improvement"},
      {"measurement": "cognitive functionality", "setting": "[4]; Day 23, 150 mg/day", "result": "improved"},
      {"measurement": "lethargic napping in the afternoon", "setting": "[4]; Day 32, after increase to 200 mg/day, symptoms subsequently became milder", "result": "initially replaced with agitation and hyperactivity"},
      {"measurement": "behaviour at school and home", "setting": "[4]; Day 36, 200 mg/day", "result": "consistent improvement"},
      {"measurement": "aggression or irritability at home", "setting": "[4]; Day 49, 125 mg every 12 hours (250 mg/day)", "result": "did not show any aggression or irritability"},
      {"measurement": "conversation in consultation", "setting": "[4]; Day 49, 250 mg/day", "result": "able to sustain longer logical conversations, at least partially"},
      {"measurement": "dysphasia", "setting": "[4]; Day 63, 250 mg/day", "result": "gradual improvement"},
      {"measurement": "hyperactivity", "setting": "[4]; Day 63, 250 mg/day", "result": "no signs of hyperactivity"},
      {"measurement": "quality of sleep", "setting": "[4]; Day 63, 250 mg/day", "result": "dramatically improved"},
      {"measurement": "dose after which sleep pattern and vegetative functions began to stabilize", "setting": "[4]; administered as two separate 75 mg doses", "result": 150, "unit": "mg/day"},
      {"measurement": "dose at which higher functions were stabilized", "setting": "[4]; administered as two separate 100 mg doses", "result": "~200", "unit": "mg/day"},
      {"measurement": "ADHD symptomatology", "setting": "[4]; child, mono-therapy for several weeks", "result": "regressed dramatically"},
      {"measurement": "secondary reactions or effects", "setting": "[4]; twice a day for >8 weeks", "result": "No secondary reactions or effects were observed"},
      {"measurement": "side effects", "setting": "[5]", "result": "without substantial side effects"},
      {"measurement": "Mood and Sleep symptoms in most patients", "setting": "[6]; 12 patients, 6 months", "result": "complete or nearly complete alleviation of the symptoms"},
      {"measurement": "all tested 'PASA' categories (Sleep Activity, Thoughts, Mood)", "setting": "[6]; 12 patients, 6 months", "result": "positive impact"},
      {"measurement": "patients with depressive unjustified feelings", "setting": "[6]; after six months of treatment, from 25%", "result": 0, "unit": "%"},
      {"measurement": "patients with irritability", "setting": "[6]; after treatment, from 33.3%", "result": 16.7, "unit": "%"},
      {"measurement": "patients with cenesthesia", "setting": "[6]; [7]", "result": 8.3, "unit": "%"},
      {"measurement": "patients with hyper emotion", "setting": "[6]; [7]", "result": 25, "unit": "%"},
      {"measurement": "patients with hypomania", "setting": "[6]; [7]", "result": 16.7, "unit": "%"},
      {"measurement": "patients with lethargy", "setting": "[6]; [7]", "result": 8.3, "unit": "%"},
      {"measurement": "patients with mood change", "setting": "[6]; [7]", "result": 0, "unit": "%"},
      {"measurement": "patients with tiredness", "setting": "[6]; [7]", "result": 8.3, "unit": "%"},
      {"measurement": "Trend of Thought: Disordered", "setting": "[6]; end of study (6 months), 67% of 12 patients before treatment", "result": "completely disappeared"},
      {"measurement": "Trend of Thought: Overabundant", "setting": "[6]; end of study (6 months), 83% of 12 patients before treatment", "result": "completely disappeared"},
      {"measurement": "distressing thoughts", "setting": "[6]; end of study, 17% of patients at the beginning", "result": "completely eliminated"},
      {"measurement": "patients with difficulties with falling asleep", "setting": "[6]; end of study, from 75%", "result": 0, "unit": "%"},
      {"measurement": "patients with sleep interruption", "setting": "[6]; end of study, from 83%", "result": 8.3, "unit": "%"},
      {"measurement": "patients with sudden off-sense disconnections (spacing out)", "setting": "[6]; end of study, initially 50%", "result": 33, "unit": "%"},
      {"measurement": "patients with dysphasia (inability of sustaining attention or understanding a long phrase)", "setting": "[6]; end of study, initially 83%", "result": 42, "unit": "%"},
      {"measurement": "patients with second thoughts disturbing concentration", "setting": "[6]; end of study, initially 83%", "result": 42, "unit": "%"},
      {"measurement": "patients with cenesthesic presences (sleep)", "setting": "[6]; end of the trial period, from 75%", "result": 8.3, "unit": "%"},
      {"measurement": "general state after waking up, sleeping without interruptions and ease of sleep", "setting": "[6]; four evaluations over 6 months", "result": "improvement"},
      {"measurement": "realistic dreams", "setting": "[6]; four evaluations over 6 months", "result": "not significantly affected"},
      {"measurement": "patients with blocking thoughts", "setting": "[6]; in the course of treatment, 50% at the beginning", "result": 25, "unit": "%"},
      {"measurement": "Hypercritical thinking", "setting": "[6]; over the course of the study", "result": "small improvement"},
      {"measurement": "Tachypsychia", "setting": "[6]; over the course of the study", "result": "small improvement"}
    ]}
  ]
}
